Measurements: patent publication US20230183753A1, “Methods of in Vitro Cell Delivery” (Intellia Therapeutics, Inc., priority 2020, published 2023)

Assays:
Type in all cases: cell-based, human
[1] = system: AAVS1; experiment: Percent editing at AAVS1 by NGS in NK cells with DNAPK inhibitors, Example 29; settings: LNP 10 ug/ml total RNA cargo, seven days post LNP treatment
Experimental: (§1) Human primary NK cells were activated and expanded using K562-41BBL cells as feeder cells in OpTmizer media with 5% human AB serum, 500 U/mL IL-2, and 5 ng/ml IL-15 for 3 days. NK cells were plated at 50,000 cells per well in triplicate in OpTmizer media supplemented as described above with DNAPKi at concentrations indicated in Tables 78 and 79. […] The pre-incubated LNPs were added to NK cells suspended in the same media at a final concentration of 10 ug/ml of total RNA cargo in triplicate. For a subset of samples, AAV encoding GFP flanked by regions homologous to the AAVS1 edit site were added at a multiplicity of infection (MOI) of 600,000 genome copies following editing.

[2] = system: AAVS1; experiment: GFP insertion (GFP++) in NK cells with LNP, AAV and DNAPK inhibitors, Example 29; settings: LNP 10 ug/ml, seven days following editing
Experimental: as §1

[3] = system: B2M; experiment: B2M editing by NGS in T cells with different ionizable lipid formulations (Lipid A, Lipid B), Example 7; settings: LNPs formulated with the named ionizable lipid
Experimental: LNPs formulated with different ionizable lipids were tested for T cell delivery efficacy. T cells were prepared, thawed and activated as in Example 5. Forty-eight hours post activation, T cells were treated with LNPs delivering Cas9 mRNA and gRNA G000529 (SEQ ID NO: 701) targeting B2M. LNPs were generally prepared as Example 1. Lipid A formulations were prepared at a ratio of 50/9/38/3 ionizable Lipid A, cholesterol, DSPC, and PEG2k-DMG. Lipid B compositions were formulated at a ratio of 50/10/38.5/1.5 ionizable lipid nonyl 8-((8,8-bis(octyloxy)octyl)(2-hydroxyethyl)amino)octanoate, cholesterol, DSPC, and PEG2k-DMG.

[4] = system: TRAC; experiment: Lipid screen in activated B cells: percent editing by NGS, Example 23.3; settings: LNPs formulated with the named ionizable lipid, 5 μg/ml
Experimental: A leukopak from a healthy human donor was obtained commercially (Hemacare) and B cells were isolated by CD19 positive selection using the StraightFrom Leukopak CD19 MicroBead kit (Miltenyi, 130-117-021) on a MultiMACS Cell24 Separator Plus instrument. Following MACS isolation, CD19+ B cells were activated in B Cell Media 3 or B Cell Media 7, each supplemented with 100 ng/ml MEGACD40L. […] LNPs were generally prepared as Example 1 using the ionizable and PEG lipids described in Table 68 with the lipid composition expressed as the molar ratio of ionizable lipid/cholesterol/DSPC/PEG, respectively.
Editing was more efficient in B cells cultured in StemSpan compared to IMDM.

[5] = system: B2M; experiment: B2M negative B cells after LNPs preincubated with ApoE3 or ApoE4, Example 23.4; settings: LNPs formulated with the named ionizable lipid
Experimental: B cells (Hemacare) were thawed and activated in Stemspan SFEM media with 1 ug/ml CpG ODN 2006 (Invivogen, cat. tlrl-2006-1), 50 ng/ml IL-2 (Peprotech, cat. 200-02), 50 ng/ml IL-10 (Peprotech, cat. 200-10), 10 ng/ml IL-15 (Peprotech, cat. 200-15), 1 ng/ml MegaCD40L (Enzo Life Sciences, cat. ALX-522-110-0000), 1% penicillin-streptomycin and 5% human AB serum. B cells were considered activated in the presence of 1 ng/mL MegaCD40L (Enzo Life Sciences, cat. ALX-522-110-0000) and 1 ug/mL CpG ODN 2006 (Invivogen, cat. tlrl-2006-1). Two days following activation, B cells were treated with LNPs delivering Cas9 mRNA and gRNA G000529 (SEQ ID NO: 701) targeting B2M. LNPs were generally prepared as Example 1 using the ionizable lipids described in Table 69 with the lipid composition of 50/10/38.5/1.5, expressed as the molar ratio of ionizable lipid/cholesterol/DSPC/PEG, respectively. […] Five days post LNP treatment, cells were phenotyped by flow cytometry. Briefly, B cells were incubated with antibodies targeting B2M (Biolegend, cat. 395806), CD19 (Biolegend, cat. 302205), CD20 (Biolegend, cat. 302322), CD86 (Biolegend cat. 305420). Cells were subsequently washed in DAPI (Thermo Fisher, cat. D1306) diluted 1:3703 in PBS, processed on a Cytoflex instrument (Beckman Coulter) and analyzed using the FlowJo software package. B cells were gated on size, singlets, and live cells.

[6] = system: B2M locus; experiment: Insertion into B cells with LNP and AAV6: GFP positive and B2M negative cells, Example 26; settings: Day 7 post-treatment; LNP with the named ionizable lipid 5 μg/ml plus AAV6
Experimental: B cells were isolated as Example 23.3. and were activated in B cell media 9 as described in Table 64, supplemented with 1 ng/ml MEGACD40L. Two days following activation, B cells were treated with LNPs delivering mRNA encoding Cas9 (SEQ ID NO. 6) and gRNA G000529 (SEQ ID NO: 701) targeting the B2M locus as well as with AAV6 for GFP template insertion into the B2M locus (SEQ ID NO. 722) driven by the EF1α promoter. LNPs were generally prepared as described in Example 1 using Lipid A and Lipid D as the ionizable lipids with the lipid composition of 50/10/38.5/1.5, expressed as the molar ratio of ionizable lipid/cholesterol/DSPC/PEG, respectively.
B cells were phenotyped for GFP expression on Day 7. For B cell phenotyping by flow cytometry, B cells were stained with antibodies targeting CD19 (Biolegend, 302218), CD20 (Biolegend, 302322), CD86 (Biolegend, 374216) and B2M (Biolegend, 316312). Cells were subsequently stained with a viability dye (Biolegend, 422801), washed, and processed on a Cytoflex instrument (Beckman Coulter). Results were analyzed using the FlowJo software package. B cells were gated based on size and viability, followed by GFP expression on the total live population.

[7] = system: B2M; experiment: Percent editing by NGS in monocytes and macrophages with Lipid A or Lipid D LNPs, Example 34; settings: LNP formulations with the named lipid; Day 0 and Day 5 post thaw
Experimental: CD14+ cells were isolated as in Example 31 and frozen for future use. CD14+ cells were thawed and cultured in triplicate at 100,000 cells/well in OpTmizer base media as described in Table 2 with 10 ng/mL GM-CSF (Stemcell, 78140.1) on non-tissue culture plates (Falcon, 351172) for ease of detachment. Cells were treated with LNPs delivering mRNA encoding Cas9 (SEQ ID NO. 6) and gRNA G000529 (SEQ ID NO. 701) targeting B2M. For monocytes, LNP addition occurred on the same day as plating on tissue culture plates. […] LNPs were generally prepared as Example 1 using the ionizable lipids indicated in Tables 84 and 85 with the lipid composition of 50/10/38.5/1.5, expressed as the molar ratio of ionizable lipid/cholesterol/DSPC/PEG, respectively. […] The pre-incubated LNPs were added to cells in 1:1 v/v ratio, yielding a final total RNA cargo dose of 2.5 ug/mL or 5 ug/mL.
Briefly, cells were incubated with antibodies targeting CD68, CD11b and HLA-ABC (Biolegend, 311432) as generally as described in Example 31. HLA-ABC targeting antibody was used in place of B2M. Cells were subsequently washed, processed on a Cytoflex instrument (Beckman Coulter) and analyzed using the FlowJo software package. Cells were gated on size, CD68+, CD11b+ followed by HLA-ABC− population. NGS editing data is shown is Table 85. […] Editing was also observed when cells were cultured in RPMI or XVIVO-15 media.

[8] = system: TRBC; experiment: CD3 negative cells after treating activated T cells with LNPs preincubated with ApoE3, ApoE4 or ApoA1, Example 19
Experimental: All cells were cultured at 37 C for 48 hours. 100,000 T cells were resuspended in complete T cell media without human serum for 15-30 min prior to LNP transfection.
Cells were washed 48 hr post LNP treatment with T cell media to wash and replaced with fresh complete T cell media.
Five days post LNP treatment, T cells were phenotyped by flow cytometry to determine CD3 protein surface expression. […] Cells were subsequently washed, analyzed on a CytoFLEX S instrument (Beckman Coulter) using the FlowJo software package. T cells were gated on size and CD3 expression.

[9] = system: TRBC; experiment: CD3 negative cells after treating non-activated T cells with LNPs preincubated with ApoE3, ApoE4 or ApoA1, Example 19
Experimental: Healthy human donor leukopak was obtained commercially (Hemacare) and T cells were isolated by CD4/CD8 positive selection using the StraightFrom® Leukopak® CD4/CD8 MicroBeads (Miltenyi, Catalog, 130-122-352) following the manufacturer's protocol on MultiMACS Cell24 Separator Plus instrument.
Upon thaw, T cells were cultured in complete T cell media: T cell base media composed of XVIVO-15 media (Fisher, BE02-060Q), 1% Pen-Strep (Corning, 30-002-CI), 50 uM beta-mercaptoethanol, and N-Acetyl L-Cysteine (Fisher, ICN19460325), which was further supplemented with 5% human AB serum (Gemini Bio Products, 100-512), 200 U/mL IL-2 (Peprotech, 200-02), 5 ng/mL IL7 (Peprotech, 200-07), 5 ng/mL IL-15 (Peprotech, 200-15)). At this stage, a portion of cells were activated by addition of 1:100 dilution of TransAct (Miltenyi Biotech, Catalog #130-111-160). All cells were cultured at 37 C for 48 hours.
LNPs were generally prepared as Example 1 with the lipid composition of 50/9/39.5/1.5, expressed as the molar ratio of ionizable lipid A/cholesterol/DSPC/PEG, respectively.
Briefly, T cells were incubated in antibody targeting CD3 (Biolegend, 300441). Cells were subsequently washed, analyzed on a CytoFLEX S instrument (Beckman Coulter) using the FlowJo software package. T cells were gated on size and CD3 expression.

[10] = Apo protein 0.08 ug/mL, Biological Replicate1, LNP 4 ug/mL
[11] = Apo protein 0.08 ug/mL, Biological Replicate2, LNP 4 ug/mL
[12] = Apo protein 1.25 ug/mL, Biological Replicate1, LNP 4 ug/mL
[13] = Apo protein 1.25 ug/mL, Biological Replicate2, LNP 4 ug/mL
[14] = Apo protein 5.00 ug/mL, Biological Replicate1, LNP 4 ug/mL
[15] = Apo protein 5.00 ug/mL, Biological Replicate2, LNP 4 ug/mL
[16] = Apo protein 10.00 ug/mL, Biological Replicate1, LNP 4 ug/mL
[17] = Apo protein 10.00 ug/mL, Biological Replicate2, LNP 4 ug/mL

Cc1cc2ncnn2cc1Nc1ncc2c(n1)n(C1CCC3(CC1)CC3)c(=O)n2C [Compound 4, 7-methyl-2-((7-methyl-[1,2,4]triazolo[1,5-a]pyridin-6-yl)amino)-9-(spiro[2.5]octan-6-yl)-7,9-dihydro-8H-purin-8-one]
Mean percent editing at AAVS1 ([1]; DNAPKi 0.125 uM): 96.77% | Mean percent editing at AAVS1 ([1]; DNAPKi 0.5 uM): 97.67% | Mean percent editing at AAVS1 ([1]; DNAPKi […]): 97.37% | Percent of NK cells with high GFP expression, Mean ([2]; AAV MOI 600,000, DNAPKi 0.125 uM): 88.10% | Percent of NK cells with high GFP expression, Mean ([2]; AAV MOI 600,000, DNAPKi 0.5 uM): 90.27% | Percent of NK cells with high GFP expression, Mean ([2]; AAV MOI 600,000, DNAPKi […]): 90.63%

CCCCC/C=C\C/C=C\CCCCCCCC(=O)OCC(COC(=O)CCC(OCCCCCCCC)OCCCCCCCC)COC(=O)OCCCN(CC)CC (stereo not shown) [Lipid A, (9Z,12Z)-3-((4,4-bis(octyloxy)butanoyl)oxy)-2-((((3-(diethylamino)propoxy)carbonyl)oxy)methyl)propyl octadeca-9,12-dienoate]
B2M editing in T cells by NGS, in words [3]: Efficient editing was evident | editing in activated B cells by NGS, in words [4]: Efficient editing was evident | B2M negative B cells, in words [5]: increased percentage of B2M negative cells | percentage of B cells expressing GFP [6]: 29.5% | editing in monocytes and macrophages, in words [7]: showed effective editing

CCCCCCCCCOC(=O)CCCCCCCN(CCO)CCCCCCCC(OCCCCCCCC)OCCCCCCCC [Lipid B, nonyl 8-((8,8-bis(octyloxy)octyl)(2-hydroxyethyl)amino)octanoate]
B2M editing in T cells by NGS, in words [3]: Efficient editing was evident

CCCCCCCCCOC(=O)CCCCCCCN(CCO)CCCCCCC(OCCCCCCCC)OCCCCCCCC [Lipid C]
editing in activated B cells by NGS, in words [4]: Efficient editing was evident

CCCCCCCCCOC(=O)CCCCCCCN(CCO)CCCCCCC(OCCCCCCCC)OCCCCCCCC [Lipid D]
B2M negative B cells, in words [5]: increased percentage of B2M negative cells | percentage of B cells expressing GFP [6]: 14.5% | editing in monocytes and macrophages, in words [7]: showed effective editing

ApoA1: Recombinant Human ApoA1 used to preincubate LNPs
Percent CD3 negative cells [8, 10]: 2.9% | Percent CD3 negative cells [8, 11]: 2.5% | Percent CD3 negative cells [8, 12]: 2.8% | Percent CD3 negative cells [8, 13]: 3.0% | Percent CD3 negative cells [8, 14]: 2.5% | Percent CD3 negative cells [8, 15]: 3.2% | Percent CD3 negative cells [8, 16]: 3.6% | Percent CD3 negative cells [8, 17]: 3.6% | editing (CD3 negative cells) with LNPs preincubated with Apo protein, in words ([8]; Apo protein 0.08-10 ug/mL): none of the tested concentrations of ApoA1 protein led to efficient editing | Percent CD3 negative cells [9, 10]: 4.2% | Percent CD3 negative cells [9, 11]: 6.2% | Percent CD3 negative cells [9, 12]: 4.7% | Percent CD3 negative cells [9, 13]: 4.2% | Percent CD3 negative cells [9, 14]: 6.1% | Percent CD3 negative cells [9, 15]: 4.8% | Percent CD3 negative cells [9, 16]: 5.4% | Percent CD3 negative cells [9, 17]: 3.8% | editing (CD3 negative cells) with LNPs preincubated with Apo protein, in words ([9]; Apo protein 0.08-10 ug/mL): none of the tested concentrations of ApoA1 protein led to efficient editing
